Earlier results in article PMC11224109, “Synthesis and preclinical evaluation of novel ^18F-vancomycin-based tracers for the detection of bacterial infections using positron emission tomography” (European Journal of Nuclear Medicine and Molecular Imaging, 2024).

Details: cited from earlier work

## CN[C@H](CC(C)C)C(=O)N[C@H]1C(=O)N[C@@H](CC(N)=O)C(=O)N[C@H]2C(=O)N[C@H]3C(=O)N[C@H](C(=O)N[C@H](C(=O)O)c4cc(O)cc(O)c4-c4cc3ccc4O)[C@H](O)c3ccc(c(Cl)c3)Oc3cc2cc(c3O[C@@H]2O[C@H](CO)[C@@H](O)[C@H](O)[C@H]2O[C@H]2C[C@](C)(N)[C@H](O)[C@H](C)O2)Oc2ccc(cc2Cl)[C@H]1O [vancomycin]
  Clinically relevant serum levels: about 15 µg/mL
